How the values were obtained:
[1] = Inhibition of Leukotriene biosynthesis in calcium ionophore A23187 stimulated human PMNL cells assessed as inhibition of LTB4 formation by cellular assay; assay type: functional, cell-based
Rattus norvegicus [2] = assay: Anti-inflammatory activity against anaphylaxis in peritoneal cavity of rat model assessed as reduction in LTB4 level at po dosed by ELISA; assay type: functional
[3] = biological target: T1, Arachidonate 5-lipoxygenase-activating protein (Homo sapiens, UniProt P20292); assay: Inhibition of FLAP in human whole blood assessed as reduction of LTB4 formation preincubated with enzyme for 15 mins followed by calcimycin addition and measured after 30 mins by HTRF assay; assay type: tissue-based
T1 sequence (P20292 whole entry): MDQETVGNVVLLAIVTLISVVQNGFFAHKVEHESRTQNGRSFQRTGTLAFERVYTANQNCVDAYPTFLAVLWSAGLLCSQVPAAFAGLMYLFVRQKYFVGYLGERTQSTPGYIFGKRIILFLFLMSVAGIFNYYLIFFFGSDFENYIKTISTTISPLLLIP

[4] = biological target: T2, Polyunsaturated fatty acid 5-lipoxygenase (Homo sapiens, UniProt P09917); assay: Inhibition of 5-LOX in human whole blood assessed as inhibition of LTB4 formation preincubated for 10 mins followed by calcium ionophore A23187 addition and measured after 30 min by RIA/RP--HPLC analysis; assay type: tissue-based
T2 sequence (P09917 whole entry): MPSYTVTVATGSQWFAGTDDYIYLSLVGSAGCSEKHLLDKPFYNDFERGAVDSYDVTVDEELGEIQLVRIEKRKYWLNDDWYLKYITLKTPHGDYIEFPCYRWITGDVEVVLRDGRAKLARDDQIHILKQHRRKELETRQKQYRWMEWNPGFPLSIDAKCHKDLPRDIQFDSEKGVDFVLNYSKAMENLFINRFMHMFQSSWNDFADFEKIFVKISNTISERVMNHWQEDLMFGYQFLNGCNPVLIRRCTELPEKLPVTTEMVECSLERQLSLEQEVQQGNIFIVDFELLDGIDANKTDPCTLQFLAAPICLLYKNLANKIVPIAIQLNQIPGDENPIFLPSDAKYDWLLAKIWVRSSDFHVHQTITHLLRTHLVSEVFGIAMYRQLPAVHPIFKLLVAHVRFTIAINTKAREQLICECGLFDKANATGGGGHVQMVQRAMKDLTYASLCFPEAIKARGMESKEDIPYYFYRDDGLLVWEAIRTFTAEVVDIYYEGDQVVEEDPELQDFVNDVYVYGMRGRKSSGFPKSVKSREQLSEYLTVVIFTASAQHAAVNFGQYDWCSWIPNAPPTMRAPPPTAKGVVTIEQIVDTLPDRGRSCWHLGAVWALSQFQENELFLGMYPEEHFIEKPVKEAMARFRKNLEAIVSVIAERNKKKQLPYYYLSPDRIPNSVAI

[5] = biological target: T2, Polyunsaturated fatty acid 5-lipoxygenase; assay: Inhibition of 5-LOX in human PMNL cells assessed as inhibition of LTB4 formation preincubated for 5 mins followed by calcium ionophore A23187 addition and measured after 6 min by HPLC analysis; assay type: cell-based
Homo sapiens = species: Homo sapiens; assay: Inhibition of Leukotriene biosynthesis in human whole blood assessed as inhibition of LTB4 formation; assay type: functional
Rattus norvegicus [6] = assay: In vivo inhibition of Leukotriene biosynthesis in anaphylaxis rat model assessed as reduction in LTB4 level at po dosed; assay type: functional
[7] = biological target: T1, Arachidonate 5-lipoxygenase-activating protein; assay: Inhibition of FLAP in human whole blood assessed as reduction in LTB4 level preincubated for 15 mins followed by calcium ionophore A23187 addition and measured after 30 min; assay type: tissue-based
[8] = biological target: T3, Polyunsaturated fatty acid 5-lipoxygenase (Rattus norvegicus, UniProt P12527); assay: Inhibition of 5-LOX in […] rat PMNL cells assessed as reduction in 5-LO product level incubated for 3 mins by scintillation counting method; assay type: cell-based
T3 sequence (P12527 whole entry): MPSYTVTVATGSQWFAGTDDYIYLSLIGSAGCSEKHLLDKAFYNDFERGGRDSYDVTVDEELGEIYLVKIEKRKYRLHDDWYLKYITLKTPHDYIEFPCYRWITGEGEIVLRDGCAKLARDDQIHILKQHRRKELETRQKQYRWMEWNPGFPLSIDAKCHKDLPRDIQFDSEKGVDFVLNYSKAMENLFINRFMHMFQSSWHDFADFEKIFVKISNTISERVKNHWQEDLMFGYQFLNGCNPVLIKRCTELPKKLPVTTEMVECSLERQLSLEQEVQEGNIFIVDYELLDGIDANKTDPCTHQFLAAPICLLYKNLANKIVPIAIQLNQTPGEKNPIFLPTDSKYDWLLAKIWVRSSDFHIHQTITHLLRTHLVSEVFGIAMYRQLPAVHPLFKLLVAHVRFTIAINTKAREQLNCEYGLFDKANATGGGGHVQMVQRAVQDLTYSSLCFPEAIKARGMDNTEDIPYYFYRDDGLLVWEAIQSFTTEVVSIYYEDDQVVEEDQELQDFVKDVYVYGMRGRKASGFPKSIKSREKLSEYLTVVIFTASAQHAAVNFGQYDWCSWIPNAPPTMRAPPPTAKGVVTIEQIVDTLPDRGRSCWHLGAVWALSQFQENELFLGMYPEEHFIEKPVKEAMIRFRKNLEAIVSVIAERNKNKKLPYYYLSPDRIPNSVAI

[9] = Inhibition of Leukotriene biosynthesis in human PMNL cells preincubated for 2 mins followed by calcium ionophore A23187 addition and measured after 5 mins by radioimmunoassay; assay type: functional, cell-based
[10] = biological target: T1, Arachidonate 5-lipoxygenase-activating protein; assay: Displacement of [125I]-L-691831 from recombinant human FLAP expressed in Sf9 insect cells incubated for 2 hr by scintillation proximity assay
[11] = biological target: T1, Arachidonate 5-lipoxygenase-activating protein; assay: Inhibition of FLAP in human monocyte assessed as reduction in all-trans isomers of LTB4 and 5-HETE formation preincubated with enzyme for 15 mins followed by Ca2+ ionophore-A23187 and measured after 10 mins by HPLC analysis; assay type: cell-based
[12] = biological target: T1, Arachidonate 5-lipoxygenase-activating protein; assay: Inhibition of FLAP in human PMNL cells assessed as reduction in all-trans isomers of LTB4 and 5-HETE formation preincubated with enzyme for 15 mins followed by Ca2+ ionophore-A23187 and measured after 10 mins by HPLC analysis; assay type: cell-based
[13] = biological target: T2, Polyunsaturated fatty acid 5-lipoxygenase; assay: Inhibition of recombinant human 5-LO expressed in Escherichia coli JM109 using arachidonic acid as substrate incubated for 10 mins by HPLC analysis
[14] = biological target: T1, Arachidonate 5-lipoxygenase-activating protein; assay: Inhibition of FLAP in human PMNL cells assessed as inhibition of 5-LO product LT formation preincubated for 15 mins followed by calcium ionophore A23187 addition and measured after 10 min by HPLC analysis; assay type: cell-based
Rattus norvegicus [15] = assay: In vivo inhibition of Leukotriene biosynthesis in pleural inflammation rat model assessed as reduction in LTB4 level at po dosed for 1 hr followed by calcium ionophore A-23187 administration and measured after 30 mins by enzyme immunoassay; assay type: functional; conditions: time 1.5 hrs
[16] = Inhibition of Leukotriene biosynthesis in calcium ionophore A-23187 stimulated human PMNL cells assessed as inhibition of LTB4 formation by enzyme immunoassay; assay type: functional, cell-based
Prostaglandin E synthase = biological target: T4, Prostaglandin E synthase (Homo sapiens, UniProt O14684); assay: Inhibition of mPGES-1 activity in IL-1beta human A549 microsome using PGH2 as substrate preincubated for 15 mins followed by substrate addition for 1 min by RP-HPLC analysis; assay type: microsomes
T4 sequence (O14684 whole entry): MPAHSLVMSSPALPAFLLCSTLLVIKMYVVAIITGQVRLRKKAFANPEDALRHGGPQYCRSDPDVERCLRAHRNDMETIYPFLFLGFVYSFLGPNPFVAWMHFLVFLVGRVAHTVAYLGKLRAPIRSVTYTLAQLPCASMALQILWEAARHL

[17] = biological target: T1, Arachidonate 5-lipoxygenase-activating protein; assay: Inhibition of FLAP in human whole blood assessed as reduction in all-trans isomers of LTB4 and 5-HETE formation preincubated with enzyme for 15 mins followed by fMLP addition and measured after 15 mins by HPLC analysis; assay type: tissue-based
[18] = biological target: T1, Arachidonate 5-lipoxygenase-activating protein; assay: Inhibition of FLAP in human monocyte assessed as reduction in all-trans isomers of LTB4 and 5-HETE formation preincubated with enzyme for 15 mins followed by A23187 addition and measured after 10 mins by ELISA assay; assay type: cell-based
[19] = biological target: T1, Arachidonate 5-lipoxygenase-activating protein; assay: Inhibition of FLAP in human neutrophil assessed as reduction in all-trans isomers of LTB4 and 5-HETE formation using arachidonic acid as substrate preincubated with enzyme for 15 mins followed by substrate addition and A23187 measured after 10 mins by ELISA assay; assay type: cell-based

CC(C)(CO/N=C/C(=O)O)Cc1c(SC(C)(C)C)c2cc(OCc3ccc4ccccc4n3)ccc2n1Cc1ccc(Cl)cc1
IC50 [1]: 21 nM | ED50 (Rattus norvegicus [2]): 0.9 mg/kg

CC(C)(/C=N/OCC(=O)O)Cc1c(SC(C)(C)C)c2cc(OCc3ccc4ccccc4n3)ccc2n1Cc1ccc(Cl)cc1
IC50 [1]: 12 nM | ED50 (Rattus norvegicus [2]): 0.24 mg/kg

CNC(=O)c1ccc(C#N)cc1-c1nc2cc(-c3cnc(N)nc3)ccc2n1C(C)(C)C
IC50 [3]: 94 nM

O=C(O)[C@@H](c1ccc(OCc2ccc3ccccc3n2)cc1)C1CCCC1 [VELIFLAPON]
IC50 [4]: 11600 nM | IC50 [5]: 220 nM | IC50 (Homo sapiens): 6000 nM | ED50 (Rattus norvegicus [6]): 4 mg/kg

Nc1cnc(-c2ccc(-c3ccccc3S(N)(=O)=O)cc2F)cn1
IC50 [7]: 390 nM

O=C(O)CSC(CCCc1ccc(Cl)cc1)c1ccc(OCc2ccc3ccccc3n2)cc1 (stereo not drawn)
IC50 [8]: 20 nM

CNC(=O)c1ccc(F)cc1-c1nc2cc(-c3cnc(N)nc3)ccc2n1C(C)(C)C
IC50 [3]: 130 nM

O=C(O)CSC(CCCc1ccccc1)c1ccc(OCc2ccc3ccccc3n2)cc1 (stereo not drawn) [AZD-4769]
IC50 [8]: 70 nM

c1ccc(COCC(OCc2ccccc2)c2ccc(OCc3ccc4ccccc4n3)cc2)cc1 (stereo not drawn)
IC50 [9]: 30 nM

CC(C)(C)n1c(-c2ccccc2C(=O)Nc2ccccn2)nc2cc(-c3cnc(N)nc3)ccc21
IC50 [3]: 2700 nM

C/C(=N\O[C@H](c1ccc(OCc2ccc3ccccc3n2)cc1)C1CCCCC1)C(=O)[O-].[Na+]
IC50 (Homo sapiens): 870 nM | ED50 (Rattus norvegicus [6]): 0.4 mg/kg

CC(C)(C)c1ccc(-c2cnc(N)cn2)c(F)c1
IC50 [7]: 600 nM

O=C(O)[C@@H](c1ccc(OCc2ccc3ccccc3n2)cc1)C1CCCCCC1
IC50 [4]: 1100 nM | IC50 [5]: 42 nM

Cc1ccn(-c2ccc(Cl)cc2-c2nc3cc(-c4cnc(N)nc4)ccc3n2C(C)(C)C)n1
IC50 [10]: 0.7 nM

O=C(O)c1noc(-c2ccc(OCc3ccc4ccccc4n3)cc2)c1-c1ccc(Cl)cc1
IC50 [11]: 7 nM | IC50 [12]: 7 nM

Nc1cnc(-c2ccc(C3CCC3)c(Oc3ncccn3)c2F)cn1
IC50 [7]: 66 nM

CC1(C)Cc2c(-c3ccccc3)c(-c3ccc(Cl)cc3)c(CC(=O)O)n2C1 [LICOFELONE]
IC50 [13]: > 10000 nM | IC50 [14]: 1700 nM

CC(CCC(=O)O)(c1ccc(OCc2ccc3ccccc3n2)cc1)c1ccc(OCc2ccc3ccccc3n2)cc1
ED50 (Rattus norvegicus [15]): 1.5 mg/kg | IC50 [16]: 23 nM

O=C(O)CSC(CCCc1ccccc1)(Cc1ccccc1)c1ccc(OCc2ccc3ccccc3n2)cc1 (stereo not drawn)
IC50 [9]: 4 nM

CC(C)Cc1ccc(C(C)c2nc3ccccc3n2Cc2ccccc2Cl)cc1 (stereo not drawn)
IC50 (Prostaglandin E synthase): 200 nM | IC50 [17]: 4800 nM | IC50 [18]: 40 nM | IC50 [19]: 150 nM
